Calls of active or inactive are those of the source. The rule behind the calls is not given here. Residues, ends and D or L forms follow the SMILES beside them. *: point of attachment. Octanoyl = CCCCCCCC(=O)*
Experiments:
Format in all cases: functional, cell-based
LM [1] = assay: Induction of NGF secretion in LM cells at 50 uM after 24 hrs; details: Mus musculus
KB = assay: Cytotoxicity against human KB cell line by [3H] thymidine incorporation assay
PC-12 = assay: Cytotoxicity against rat PC12 cell line by [3H] thymidine incorporation assay; details: PC-12, 24 h
LM [2] = assay: Cytotoxicity against mouse LM cell line by [3H] thymidine incorporation assay

| SMILES | Activity (LM [1]) | IC50 (KB) | IC50 (PC-12) | IC50 (LM [2]) |
| --- | --- | --- | --- | --- |
| CCCCCCCCC[C@@H](O)CC(=O)N[C@@H](CC(N)=O)C(=O)N[C@@H](CCC(N)=O)C(=O)N[C@H](C=O)CC(C)C [FELLUTAMIDE B] | Active | 349 nM | 437 nM | 482 nM |
| CCCCCCCC(=O)N[C@@H](CC(N)=O)C(=O)N[C@@H](CCC(N)=O)C(=O)N[C@H](C=O)CC(C)C (Octanoyl-Asn-Gln-Leu-aldehyde) | Active | 4830 nM | 1670 nM | 3330 nM |
